# Results published in US20170143603A1, “PROCESS FOR SEMI-PERMANENT STRAIGHTENING OF CURLY, FRIZZY OR WAVY HAIR” (KAO CORPORATION, priority 2010, published 2017).
# Assay: Hair straightening treatment, assessment in words of hair look and permanence
# Set-up: species or system human
# Procedure: Tests consisted in dissolving 10 grams of glyoxylic acid in 100 milliliters of water.
# In particular, hair was washed with basic pH (7.5-8.5) shampoo, then said glyoxylic acid solution was applied (application can be made with hard bristle brush, spray or in any other way).
# Hair was left in contact with the substance for 60 minute time (+/−30 minutes) and then dried with the hairdryer.
# Once dried, hair was straightened with hair straightening iron heated at average temperature of approximately 200°C., +/−50° C.
# Finally, hair was rinsed again with water or washed again with shampoo and dried.
# Each substance was tested in a mixture with such glyoxylic acid solution by adding 10 grams of one of the substances listed in table 2 to 100 milliliters of said solution.
# In particular, a hair straightening test was carried out using the formulation of a cosmetic product by INOAR Cosmeticos Ltda of San Paulo, Brazil, known as “Tratamento capillar marroquino”. The product was deprived of its active ingredient for hair straightening.
# 10 grams of glyoxylic acid were added to 100 milliliters of said cosmetic and, after carrying out the same hair treatment operations illustrated in the foregoing pages, the results were identical to the ones achieved using the same percentage ratio of glyoxylic acid in water.
smiles,measurement,setting,value
"O=CC(=O)O [glyoxylic acid, Glyoxylic acid]",hair condition at the end of treatment,10 grams of glyoxylic acid in 100 milliliters of cosmetic “Tratamento capillar marroquino” deprived of its active ingredient,"permanently shiny, straight, volumeless, and soft to touch"
same,hair condition at the end of treatment,"10 grams of glyoxylic acid in 100 milliliters of water, 60 minute contact, iron approximately 200°C.","shiny, straight, volumeless, soft to touch, and especially pleasant"
same,efficacy of treatment maintained over time,"washings, rinsings and dryings in normal use conditions of hair shampoo","at least six washings, rinsings and dryings"
same,result compared with the other buffering agents of the European list,within the process of the invention,best results
